According to patent US12643910B2, “Substituted pyrazolo[3,4-b]pyridines as ectonucleotide pyrophosphatase/phosphodiesterase 1 (ENPP1) modulators” (SANFORD BURNHAM PREBYS MEDICAL DISCOVERY INSTITUTE, priority 2019, dated 2026):

Assays:
[1] = target: T1, human ENPP1 (Homo sapiens, UniProt P22413); experiment: ENPP1 assay with ATP substrate (Transcreener AMP2/GMP2 TR-FRET); assay type: biochemical; settings: 1 hour at room temperature
T1 construct: made in house
T1 sequence (P22413 1-925): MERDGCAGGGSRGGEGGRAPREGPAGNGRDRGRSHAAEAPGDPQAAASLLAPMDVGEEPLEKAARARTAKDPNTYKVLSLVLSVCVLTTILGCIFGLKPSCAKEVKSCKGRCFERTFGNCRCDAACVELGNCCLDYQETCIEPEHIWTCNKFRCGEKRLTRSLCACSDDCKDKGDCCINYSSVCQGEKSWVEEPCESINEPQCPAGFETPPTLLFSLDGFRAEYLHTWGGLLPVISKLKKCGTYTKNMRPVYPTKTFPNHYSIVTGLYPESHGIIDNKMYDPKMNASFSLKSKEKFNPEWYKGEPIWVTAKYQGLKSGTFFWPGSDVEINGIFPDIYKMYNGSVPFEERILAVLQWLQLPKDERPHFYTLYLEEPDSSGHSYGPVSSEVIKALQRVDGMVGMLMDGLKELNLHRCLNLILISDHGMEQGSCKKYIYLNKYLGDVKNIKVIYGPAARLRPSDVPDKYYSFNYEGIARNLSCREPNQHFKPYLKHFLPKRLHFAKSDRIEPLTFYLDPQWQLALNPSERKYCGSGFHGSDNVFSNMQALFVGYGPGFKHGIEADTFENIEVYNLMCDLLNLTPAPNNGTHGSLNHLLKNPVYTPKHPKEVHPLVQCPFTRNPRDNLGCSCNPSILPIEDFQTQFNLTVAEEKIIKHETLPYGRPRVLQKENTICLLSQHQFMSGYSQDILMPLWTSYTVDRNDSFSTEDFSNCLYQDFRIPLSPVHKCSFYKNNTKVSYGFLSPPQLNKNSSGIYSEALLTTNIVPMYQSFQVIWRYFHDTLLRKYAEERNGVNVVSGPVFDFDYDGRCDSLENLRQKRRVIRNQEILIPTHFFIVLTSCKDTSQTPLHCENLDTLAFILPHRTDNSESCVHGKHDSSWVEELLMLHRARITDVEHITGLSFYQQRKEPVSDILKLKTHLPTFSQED
Outline: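 Reaction ran 1 h at room temperature in pH 7.5 Tris with MgCl2, TCEP, Tween 20 and 1% DMSO. ATP was added as a 300 nM stock and enzyme as an 8.5 μM stock. After EDTA stop, AMP was read by TR-FRET tracer displacement. Percent inhibition used enzyme/no-enzyme controls; IC50 was fitted with a variable slope.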

[2] = target: T2, ENPP3 (Homo sapiens, UniProt O14638); experiment: ENPP3 Km ATP assay; assay type: biochemical; settings: ATP at Km
T2 sequence (O14638 1-875): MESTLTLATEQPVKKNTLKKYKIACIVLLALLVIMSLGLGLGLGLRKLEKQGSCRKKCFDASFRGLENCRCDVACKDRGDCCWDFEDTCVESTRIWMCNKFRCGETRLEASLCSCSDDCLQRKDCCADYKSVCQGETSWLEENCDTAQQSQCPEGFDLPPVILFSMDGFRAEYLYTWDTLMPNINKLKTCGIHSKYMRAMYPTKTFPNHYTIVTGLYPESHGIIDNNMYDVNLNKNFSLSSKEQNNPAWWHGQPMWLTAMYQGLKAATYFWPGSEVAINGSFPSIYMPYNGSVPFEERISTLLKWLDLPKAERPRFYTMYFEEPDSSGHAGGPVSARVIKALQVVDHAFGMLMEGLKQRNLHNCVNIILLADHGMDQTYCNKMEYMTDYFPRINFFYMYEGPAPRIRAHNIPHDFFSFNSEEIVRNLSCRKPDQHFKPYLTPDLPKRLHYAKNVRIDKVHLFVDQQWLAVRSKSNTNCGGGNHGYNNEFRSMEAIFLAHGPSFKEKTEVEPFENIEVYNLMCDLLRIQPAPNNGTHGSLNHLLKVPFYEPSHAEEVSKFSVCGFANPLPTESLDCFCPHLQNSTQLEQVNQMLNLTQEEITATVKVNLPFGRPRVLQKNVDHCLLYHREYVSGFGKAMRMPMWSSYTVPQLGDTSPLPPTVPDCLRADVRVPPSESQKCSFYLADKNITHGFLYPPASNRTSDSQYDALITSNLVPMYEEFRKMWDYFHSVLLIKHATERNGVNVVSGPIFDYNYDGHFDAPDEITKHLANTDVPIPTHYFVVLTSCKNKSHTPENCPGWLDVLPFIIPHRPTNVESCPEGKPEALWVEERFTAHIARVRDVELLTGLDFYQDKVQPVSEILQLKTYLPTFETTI

## CC(C)Nc1cc(NCc2ccc(S(N)(=O)=O)cc2)c2cnn(C)c2n1 [Example 2.74, 4-(((6-(Isopropylamino)-1-methyl-1H-pyrazolo[3,4-b]pyridin-4-yl)amino)methyl)benzenesulfonamide]
[1]
  IC50: 1 to 20 µM
[2]
  IC50: 1 to 20 µM

## CCNc1cc(NCc2ccc(S(N)(=O)=O)cc2)c2cnn(C)c2n1 [Example 2.75, 4-(((6-(Ethylamino)-1-methyl-1H-pyrazolo[3,4-b]pyridin-4-yl)amino)methyl)-benzenesulfonamide]
[1]
  IC50: 0.1 to 1 µM
[2]
  IC50: 1 to 20 µM

## CNc1cc(NCc2ccc(S(N)(=O)=O)cc2)c2cnn(C)c2n1 [Example 2.76, 4-(((1-Methyl-6-(methylamino)-1H-pyrazolo[3,4-b]pyridin-4-yl)amino)methyl)-benzenesulfonamide]
[1]
  IC50: 1 to 20 µM
[2]
  IC50: 0.1 to 1 µM

## Cn1ncc2c(NCc3ccc(S(N)(=O)=O)cc3)cc(N3CCCC3)nc21 [Example 2.77, 4-(((1-Methyl-6-(pyrrolidin-1-yl)-1H-pyrazolo[3,4-b]pyridin-4-yl)amino)methyl)-benzenesulfonamide]
[1]
  IC50: 1 to 20 µM
[2]
  IC50: 0.1 to 1 µM

## Cn1ncc2c(NCc3ccc(S(N)(=O)=O)cc3)cc(N)nc21 [Example 2.78, 4-(((6-Amino-1-methyl-1H-pyrazolo[3,4-b]pyridin-4-yl)amino)methyl)-benzenesulfonamide]
[1]
  IC50: 0.1 to 1 µM
[2]
  IC50: 0.1 to 1 µM

## CCN(CC)c1cc(NCc2ccc(S(N)(=O)=O)cc2)c2cnn(C)c2n1 [Example 2.79, 4-(((6-(Diethylamino)-1-methyl-1H-pyrazolo[3,4-b]pyridin-4-yl)amino)methyl)-benzenesulfonamide]
[1]
  IC50: > 20 µM
[2]
  IC50: 1 to 20 µM

## CCCCNc1cc(NCc2ccc(S(N)(=O)=O)cc2)c2cnn(C)c2n1 [Example 2.80, 4-(((6-(Butylamino)-1-methyl-1H-pyrazolo[3,4-b]pyridin-4-yl)amino)methyl)-benzenesulfonamide]
[1]
  IC50: 1 to 20 µM
[2]
  IC50: 1 to 20 µM

## Cn1ncc2c(NCc3ccc(S(N)(=O)=O)cc3)cc(NCCO)nc21 [Example 2.81, 4-(((6-((2-Hydroxyethyl)amino)-1-methyl-1H-pyrazolo[3,4-b]pyridin-4-yl)amino)methyl)-benzenesulfonamide]
[1]
  IC50: 1 to 20 µM
[2]
  IC50: 1 to 20 µM

## Cn1ncc2c(NCc3ccc(S(N)(=O)=O)cc3)cc(N3CCOCC3)nc21 [Example 2.82, 4-(((1-Methyl-6-morpholino-1H-pyrazolo[3,4-b]pyridin-4-yl)amino)methyl)-benzenesulfonamide]
[1]
  IC50: 1 to 20 µM
[2]
  IC50: 1 to 20 µM

## CCn1ncc2c(NCc3ccc(S(N)(=O)=O)cc3)nc(Cl)nc21 [Example 2.83, 4-((6-Chloro-1-ethyl-1H-pyrazolo[3,4-d]pyrimidin-4-yl)aminomethyl)benzenesulfonamide]
[1]
  IC50: < 0.1 µM
[2]
  IC50: 1 to 20 µM

## NS(=O)(=O)c1ccc(CNc2nc(Cl)nc3c2cnn3C2CC2)cc1 [Example 2.84, 4-((6-Chloro-1-cyclopropyl-1H-pyrazolo[3,4-d]pyrimidin-4-yl)aminomethyl)-benzenesulfonamide]
[1]
  IC50: < 0.1 µM
[2]
  IC50: 1 to 20 µM

## Cn1ncc2c(NCc3ccc(S(N)(=O)=O)s3)nc(Cl)nc21 [Example 2.85, 5-((6-Chloro-1-methyl-1H-pyrazolo[3,4-d]pyrimidin-4-yl)aminomethyl)thiophene-2-sulfonamide]
[1]
  IC50: 0.1 to 1 µM
[2]
  IC50: 0.1 to 1 µM

## NS(=O)(=O)c1ccc(CNc2nc(Cl)nc3c2cnn3CC(F)(F)F)cc1 [Example 2.86, 4-((6-Chloro-1-(2,2,2-trifluoroethyl)-1H-pyrazolo[3,4-d]pyrimidin-4-yl)aminomethyl)-benzenesulfonamide]
[1]
  IC50: 1 to 20 µM
[2]
  IC50: 1 to 20 µM

## Cn1nc(Br)c2c(NCc3ccc(S(N)(=O)=O)cc3)nc(Cl)nc21 [Example 2.87, 4-((3-Bromo-6-chloro-1-methyl-1H-pyrazolo[3,4-d]pyrimidin-4-yl)aminomethyl)-benzenesulfonamide]
[1]
  IC50: < 0.1 µM
[2]
  IC50: < 0.1 µM

## Cc1nc(NCc2ccc(S(N)(=O)=O)cc2)c2c(Br)nn(C)c2n1 [Example 2.89, 4-((3-Bromo-1,6-dimethyl-1H-pyrazolo[3,4-d]pyrimidin-4-yl)aminomethyl)-benzenesulfonamide]
[1]
  IC50: < 0.1 µM
[2]
  IC50: < 0.1 µM

## Cn1nc(Cl)c2c(NCc3ccc(S(N)(=O)=O)cc3)ncnc21 [Example 2.90, 4-((3-Chloro-1-methyl-1H-pyrazolo[3,4-d]pyrimidin-4-yl)aminomethyl)-benzenesulfonamide]
[1]
  IC50: 0.1 to 1 µM
[2]
  IC50: 0.1 to 1 µM

## Cn1ncc2c(NCc3ccc(S(N)(=O)=O)cc3)nc(Cl)nc21 [Example 2.92, 4-((6-Chloro-1-methyl-1H-pyrazolo[3,4-d]pyrimidin-4-yl)aminomethyl)-benzenesulfonamide]
[1]
  IC50: < 0.1 µM
[2]
  IC50: 0.1 to 1 µM

## CCOc1nc(NCc2ccc(S(N)(=O)=O)cc2)c2cnn(C)c2n1 [Example 2.93, 4-((6-Ethoxy-1-methyl-1H-pyrazolo[3,4-d]pyrimidin-4-yl)aminomethyl)-benzenesulfonamide]
[1]
  IC50: < 0.1 µM
[2]
  IC50: 0.1 to 1 µM

## COc1nc(NCc2ccc(S(N)(=O)=O)cc2)c2cnn(C)c2n1 [Example 2.94, 4-((6-Methoxy-1-methyl-1H-pyrazolo[3,4-d]pyrimidin-4-yl)aminomethyl)-benzenesulfonamide]
[1]
  IC50: < 0.1 µM
[2]
  IC50: 0.1 to 1 µM

## COc1nc(NCc2ccc(S(N)(=O)=O)s2)c2cnn(C)c2n1 [Example 2.95, 5-((6-Methoxy-1-methyl-1H-pyrazolo[3,4-d]pyrimidin-4-yl)aminomethyl)thiophene-2-sulfonamide]
[1]
  IC50: 0.1 to 1 µM
[2]
  IC50: 0.1 to 1 µM

## COc1nc(NCc2ccc(S(N)(=O)=O)cc2)c2c(Br)nn(C)c2n1 [Example 2.96, 4-((3-Bromo-6-methoxy-1-methyl-1H-pyrazolo[3,4-d]pyrimidin-4-yl)aminomethyl)-benzenesulfonamide]
[1]
  IC50: < 0.1 µM
[2]
  IC50: < 0.1 µM

## CCOc1nc(NCc2ccc(S(N)(=O)=O)cc2)c2c(Br)nn(C)c2n1 [Example 2.97, 4-((3-Bromo-6-ethoxy-1-methyl-1H-pyrazolo[3,4-d]pyrimidin-4-yl)aminomethyl)-benzenesulfonamide]
[1]
  IC50: < 0.1 µM
[2]
  IC50: < 0.1 µM

## CCn1ncc2c(NCc3ccc(S(N)(=O)=O)cc3)nc(OCCC(C)(C)OC)nc21 [Example 2.98, 4-((1-Ethyl-6-(3-methoxy-3-methylbutoxy)-1H-pyrazolo[3,4-d]pyrimidin-4-yl)aminomethyl)-benzenesulfonamide]
[1]
  IC50: < 0.1 µM
[2]
  IC50: 1 to 20 µM

## Cn1ncc2c(NCc3ccc(S(N)(=O)=O)cc3)nc(OCC(F)(F)F)nc21 [Example 2.99, 4-((6-(2,2,2-Trifluoroethoxy)-1-methyl-1H-pyrazolo[3,4-d]pyrimidin-4-yl)aminomethyl)-benzenesulfonamide]
[1]
  IC50: 0.1 to 1 µM
[2]
  IC50: 0.1 to 1 µM

## CC(C)CCOc1nc(NCc2ccc(S(N)(=O)=O)cc2)c2cnn(C)c2n1 [Example 2.101, 4-((1-Methyl-6-(3-methylbutoxy)-1H-pyrazolo[3,4-d]pyrimidin-4-yl)aminomethyl)-benzenesulfonamide]
[1]
  IC50: < 0.1 µM
[2]
  IC50: 0.1 to 1 µM
